Test results: patent US20230416329A1, “A PEPTIDE WITH DISULFIDE BONDS AND INHIBITORY ACTIVITY AGAINST SERINE PROTEASES, DERIVED HYBRID PEPTIDES THEREOF, AND USES THEREOF” (INSTITUTE OF MATERIA MEDICA , CHINESE ACADEMY OF MEDICAL …, priority 2020, published 2023)
Bridge positions count the residues as written; N and C are the ends. Ends that are not written are not given here. PEG = not defined here

Experiments:
normal ICR mice [1] = assay: In vivo hypoglycemic activity of GLP-1 analogues, subcutaneous administration, oral glucose loading; set-up: species or system mouse; conditions: normal ICR mice, 1 μmol/kg s.c., glucose 2 g/kg by gavage
Experimental: FIG. 21. In vivo hypoglycemic activities of GLP-1 analogues by subcutaneous administration. Normal ICR mice were subcutaneously injected with GLP-1 and its analogues or corresponding volumes of saline (1.0 μmol/kg, n=10). After 30 min, glucose solution (2 g/kg) was administered by gavage, and blood was collected from the tail tip at 30, 60, and 120 min after glucose administration. Blood glucose was measured using glucose oxidase method, and blood glucose values and area under the blood glucose curve (AUC) were calculated at each timepoint.
The day before the experiment, all of the animals were fasted for 15-16 hours with water ad libitum. On the day of the experiment, the animals were randomly divided according to body weight (n=10). Firstly, the blood was collected from the tail tip at 0 hour, and then the animals were administered subcutaneously with GLP-1 analog (SEQ ID NOs: 194-201, 1 μmol/kg) or saline. After 30 minutes, the animals were administered by gavage with glucose solution (2 g/kg), and the blood was collected from the tail tip at 30, 60, and 120 minutes later. Blood glucose was measured using glucose oxidase method. The blood glucose and area under the blood glucose-time curve (AUC) were calculated.

normal ICR mice [2] = assay: In vivo hypoglycemic activity of GLP-1 analogues, duodenal administration, oral glucose loading; set-up: species or system mouse; conditions: normal ICR mice, 10 μmol/kg duodenal, glucose 2 g/kg by gavage
Experimental: FIG. 22. In vivo hypoglycemic activities of GLP-1 analogues by duodenal administration. Normal ICR mice were anesthetized with inhalation of ether, and the duodenum was surgically removed and injected with GLP-1 and its analogues or a corresponding volume of saline ([…], n=9-11), and finally the incision was sewed. After 15 min, glucose solution (2 g/kg) was administered by gavage, and blood was collected from the tail tips at 15, 30, and 60 min after glucose administration. Blood glucose was measured using glucose oxidase method, and blood glucose values and area under the blood glucose curve (AUC) were calculated at each timepoint.
Drug delivery technology can use enteric coating technology to achieve oral administration targeting the small intestine. In order to test the feasibility of direct small intestinal administration of GLP-1, the present invention designs duodenal administration. The experimental process is as follows: The day before the experiment, all of the animals were fasted for 15-16 hours with water ad libitum. On the day of the experiment, the animals were randomly divided according to body weight (n=9-11 or 14-15 for combined administration). Firstly, the blood was collected from the tail tip at 0 hours, and then the animals were anesthetized by inhaling ether. A small incision was made near the underside of the stomach using surgical scissors, and the duodenum was carefully removed and administered with GLP-1 analogs (SEQ ID NOs: 194-209, 10 μmol/kg) or saline. Finally, the wound was sutured. After 15 minutes, the glucose solution (2 g/kg) was administered by gavage, and the blood were collected from the tail tips at 15, 30, and 60 minutes after glucose administration. Blood glucose was measured using the glucose oxidase method. The blood glucose at each moment and area under the blood glucose-time curve (AUC) were calculated.
AUC mg×h/dL)=(BG0+BG15)×15/60+(BG15+BG30)×15/60+(BG30+BG60)×30/60. BG0, BG15, BG30, and BG60 represent blood glucose levels at 0, 15, 30, and 60 minutes after glucose loading, respectively.

Substance | hypoglycemic activity, subcutaneous injection (in words) (normal ICR mice [1]) | hypoglycemic activity, duodenal administration (in words) (normal ICR mice [2])
Ac-Gly-Arg-Cys-Thr-Lys-Ser-Ile-Pro-Pro-Ile-Cys-Phe-Pro-Gly-Gly-Ile-Pro-Ile-Gly-Gly-His-Ala-Glu-Gly-Thr-Phe-Thr-Ser-Asp-Val-Ser-Ser-Tyr-Leu-Glu-Gly-Gln-Ala-Ala-Lys-Glu-Phe-Ile-Ala-Trp-Leu-Val-Lys-Gly-Arg-Gly-Gly-Lys-NH2 (Ac-GRCTKSIPPICFPGGIPIGGHAEGTFTSDVSSYLEGQAAKEFIAWLVKGRGGK-NH2; disulfide 3-11 (inferred)) [Acetylated and Amidated SEQ ID NO: 194] | did not show any significant differences in their hypoglycemic activity compared to the unmodified molecules | 
Ac-Gly-Ile-Pro-Ile-Gly-Gly-His-Ala-Glu-Gly-Thr-Phe-Thr-Ser-Asp-Val-Ser-Ser-Tyr-Leu-Glu-Gly-Gln-Ala-Ala-Lys-Glu-Phe-Ile-Ala-Trp-Leu-Val-Lys-Gly-Arg-Gly-Gly-Lys-Gly-Cys-Gly-Arg-Ala-Thr-Lys-Ser-Ile-Pro-Pro-Ile-Cys-Phe-NH2 (Ac-GIPIGGHAEGTFTSDVSSYLEGQAAKEFIAWLVKGRGGKGCGRATKSIPPICF-NH2; disulfide 41-52 (inferred)) [Acetylated and Amidated SEQ ID NO: 200] | did not show any significant differences in their hypoglycemic activity compared to the unmodified molecules | 
PEG-Phe-Cys-Thr-Tyr-Ser-Ile-Pro-Pro-Gln-Cys-Tyr-Gly-Gly-Ile-Pro-Ile-Gly-Gly-His-Ala-Glu-Gly-Thr-Phe-Thr-Ser-Asp-Val-Ser-Ser-Tyr-Leu-Glu-Gly-Gln-Ala-Ala-Lys-Glu-Phe-Ile-Ala-Trp-Leu-Val-Lys-Gly-Arg-Gly-Gly-Lys ({PEG}-FCTYSIPPQCYGGIPIGGHAEGTFTSDVSSYLEGQAAKEFIAWLVKGRGGK; disulfide 2-10 (inferred); reading uncertain; also: printed as PEG-Phe-Cys-Thr-Tyr-Ser-Ile-Pro-Pro-Gln-Cys-Tyr-Gly-Gly-Ile-Pro-Ile-Gly-Gly-His-Ala-Glu-Gly-Thr-Phe-Thr-Ser-Asp-Val-Ser-Ser-Tyr-Leu-Glu-Gly-Gln-Ala-Ala-Lys-Glu-Phe-Ile-Ala-Trp-Leu-Val-Lys-Gly-Arg-Gly-Gly-Lys) [N-Terminal PEGylated SEQ ID NO: 204] | did not show any significant differences in their hypoglycemic activity compared to the unmodified molecules | 
Cys-Gly-Arg-Ala-Thr-Lys-Ser-Ile-Pro-Pro-Ile-Cys-Phe-Gly-Gly-Gln-Arg-Phe-Ser-Arg-Gly-Gly-His-Ala-Glu-Gly-Thr-Phe-Thr-Ser-Asp-Val-Ser-Ser-Tyr-Leu-Glu-Gly-Gln-Ala-Ala-Lys-Glu-Phe-Ile-Ala-Trp-Leu-Val-Lys-Gly-Arg-Gly-Gly-Lys (CGRATKSIPPICFGGQRFSRGGHAEGTFTSDVSSYLEGQAAKEFIAWLVKGRGGK; Synthetic construct BT9-N-GLP-1) [SEQ ID NO: 199] | significantly reduced the blood glucose levels at 30 and 60 minutes after oral glucose loading and the AUC | did not influence the blood glucose levels
Gly-Arg-Cys-Thr-Lys-Ser-Ile-Pro-Pro-Ile-Cys-Phe-Pro-Gly-Gly-Gln-Arg-Phe-Ser-Arg-Gly-Gly-His-Ala-Glu-Gly-Thr-Phe-Thr-Ser-Asp-Val-Ser-Ser-Tyr-Leu-Glu-Gly-Gln-Ala-Ala-Lys-Glu-Phe-Ile-Ala-Trp-Leu-Val-Lys-Gly-Arg-Gly-Gly-Lys (GRCTKSIPPICFPGGQRFSRGGHAEGTFTSDVSSYLEGQAAKEFIAWLVKGRGGK; Synthetic construct BT1-N-GLP-1) [SEQ ID NO: 195] | significantly reduced the blood glucose levels at 30 and 60 minutes after oral glucose loading and the AUC | did not influence the blood glucose levels
Gly-Gln-Arg-Phe-Ser-Arg-Gly-Gly-His-Ala-Glu-Gly-Thr-Phe-Thr-Ser-Asp-Val-Ser-Ser-Tyr-Leu-Glu-Gly-Gln-Ala-Ala-Lys-Glu-Phe-Ile-Ala-Trp-Leu-Val-Lys-Gly-Arg-Gly-Gly-Lys-Gly-Cys-Gly-Arg-Ala-Thr-Lys-Ser-Ile-Pro-Pro-Ile-Cys-Phe (GQRFSRGGHAEGTFTSDVSSYLEGQAAKEFIAWLVKGRGGKGCGRATKSIPPICF; Synthetic construct N-GLP-1-BT9) [SEQ ID NO: 201] | significantly reduced the blood glucose levels at 30 and 60 minutes after oral glucose loading and the AUC | did not influence the blood glucose levels
Gly-Gln-Arg-Phe-Ser-Arg-Gly-Gly-His-Ala-Glu-Gly-Thr-Phe-Thr-Ser-Asp-Val-Ser-Ser-Tyr-Leu-Glu-Gly-Gln-Ala-Ala-Lys-Glu-Phe-Ile-Ala-Trp-Leu-Val-Lys-Gly-Arg-Gly-Gly-Lys-Gly-Arg-Cys-Thr-Lys-Ser-Ile-Pro-Pro-Ile-Cys-Phe-Pro (GQRFSRGGHAEGTFTSDVSSYLEGQAAKEFIAWLVKGRGGKGRCTKSIPPICFP; Synthetic construct N-GLP-1-BT1) [SEQ ID NO: 197] | significantly reduced the blood glucose levels at 30 and 60 minutes after oral glucose loading and the AUC | did not influence the blood glucose levels
PEG-Gly-Ile-Pro-Ile-Gly-Gly-His-Ala-Glu-Gly-Thr-Phe-Thr-Ser-Asp-Val-Ser-Ser-Tyr-Leu-Glu-Gly-Gln-Ala-Ala-Lys-Glu-Phe-Ile-Ala-Trp-Leu-Val-Lys-Gly-Arg-Gly-Gly-Lys-Gly-Cys-Gly-Arg-Ala-Thr-Lys-Ser-Ile-Pro-Pro-Ile-Cys-Phe ({PEG}-GIPIGGHAEGTFTSDVSSYLEGQAAKEFIAWLVKGRGGKGCGRATKSIPPICF; disulfide 41-52 (inferred); reading uncertain; also: printed as PEG-Gly-Ile-Pro-Ile-Gly-Gly-His-Ala-Glu-Gly-Thr-Phe-Thr-Ser-Asp-Val-Ser-Ser-Tyr-Leu-Glu-Gly-Gln-Ala-Ala-Lys-Glu-Phe-Ile-Ala-Trp-Leu-Val-Lys-Gly-Arg-Gly-Gly-Lys-Gly-Cys-Gly-Arg-Ala-Thr-Lys-Ser-Ile-Pro-Pro-Ile-Cys-Phe) [N-Terminal PEGylated SEQ ID NO: 200] | did not show any significant differences in their hypoglycemic activity compared to the unmodified molecules | 
